# Measurements published in patent publication US20200215142A1, “PHARMACEUTICAL COMPOSITION CONTAINING AVOCADO OIL FRACTION AS ACTIVE INGREDIENT FOR PREVENTION OR TREATMENT OF HEARING LOSS” (DONG KOOK PHARM CO., LTD, priority 2017, published 2020).
# Columns and labels:
# [1] = system: hair cells of zebrafish reduced by neomycin; experiment: Hair cells of zebrafish larvae reduced by neomycin (ototoxicity), YO-PRO staining and fluorescence microscope count; assay type: in vivo; details: neomycin 1 μM 1 h, then single substance 1 μg/ml 12 h (FIGS. 7, 8)
# Description: Particularly, 6 days after fertilization, zebrafish […] placed in 24-well plates and neomycin was added thereto at the concentration of 1 μM. One hour later, neomycin was removed and the isopropanol fraction of avocado oil prepared in Example 1 was added at the concentration of 1 μg/ml. At this time, avocado oil was used as the control and 0.03% (w/v) sea salt solution was used as the untreated control. Twelve hours later, 0.1% YO-PRO (Life Technologies, USA) was added to stain hair cells of the […] for 30 minutes. […] Particularly, 6 days after fertilization, zebrafish […] placed in 24-well plates and neomycin was added thereto at the concentration of 1 μM. One hour later, neomycin was removed and A-E were added at the concentration of 10 μg/ml. At this time, 0.03% (w/v) sea salt solution was used as the control. Twelve hours later, 0.1% YO-PRO (Life Technologies, USA) was added to stain hair cells of the […] for 30 minutes. The stained hair cells were observed using a fluorescence microscope (Olympus 1x70, Olympus, Japan), and the number of the observed hair cells was counted and analyzed.
# [2] = system: hair cells of zebrafish reduced by kanamycin; assay type: in vivo; details: kanamycin 1 μM vs neomycin 1 μM, 1 h; comparison of Experimental Examples 6 and 7
# Description: Particularly, 6 days after fertilization, zebrafish larvaes were placed in 24-well plates and kanamycin was added thereto at the concentration of 1 μM. One hour later, kanamycin was removed and IPG and BG were added at the concentration of 10 μg/ml. At this time, 0.03% (w/v) sea salt solution was used as the control. Twelve hours later, 0.1% YO-PRO (Life Technologies, USA) was added to stain hair cells of the larvaes for 30 minutes. The stained hair cells were observed using a fluorescence microscope (Olympus 1x70, Olympus, Japan), and the number of the observed hair cells was counted and analyzed. As a result, the number of hair cells observed with a fluorescence microscope was shown in FIG. 11 and photomicrographs of the hair cells taken with a fluorescence microscope were shown in FIG. 12.
Compound,number of hair cells [1],toxicity to hair cells of zebrafish fry (reduction of the number of hair cells) [2]
CCCCC/C=C\C/C=C\CCCCCCCC(=O)O [linoleic acid],significantly increased,–
CC/C=C\C/C=C\C/C=C\CCCCCCCC(=O)O [alpha-linolenic acid],significantly increased,–
NC[C@H]1O[C@H](O[C@H]2[C@H](O)[C@@H](O[C@H]3O[C@H](CO)[C@@H](O)[C@H](N)[C@H]3O)[C@H](N)C[C@@H]2N)[C@H](O)[C@@H](O)[C@@H]1O [kanamycin],–,more toxic than neomycin
CCCCCCCCCCCCCCCCCC(=O)O [stearic acid],significantly increased,–
